The text below walks through data of PubChem BioAssay (NCI).

What all share (experiment): NCI-60 cell line screen, 48 h
Assay [1] relates to HCT-116 colon.
For assay [2], the system named is SK-OV-3 ovarian.
The subject of assay [3] is TK-10 renal.
In assay [4] the test system is MCF7 breast.
Assay [5] relates to MOLT-4 leukemia.
Assay [6] has as its system OVCAR-8 ovarian.
Assay [7] deals with COLO 205 colon.
The subject of assay [8] is OVCAR-4 ovarian.
The test system of assay [9] is RXF 393 renal.
In assay [10] the test system is CCRF-CEM leukemia.
Assay [11] relates to MALME-3M melanoma.
The test system of assay [12] is HS 578T breast.
For assay [13], the system named is UO-31 renal.
Assay [14] relates to SN12C renal.
In assay [15] the test system is SR leukemia.
In assay [16] the test system is NCI-H460 lung.
The test system of assay [17] is SW-620 colon.

Structures are written as SMILES.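 96-well plates; 48 h exposure; 5 concentrations. Endpoints by linear interpolation between flanking doses. Not reached: highest tested concentration assigned. TGI denotes the concentration required for complete inhibition of growth.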 Where only a bound is given, the exact number is not on record here.

Regarding `COc1ccc(N=CN(C)C)c(C)c1`, the TGI is 19.6 µM in assay [1]; 82.8 µM in [2]; above 100 µM in assay [3]; 44.3 µM in [4]; 23.8 µM in [5]; 83.8 µM in assay [6]. Moreover, the TGI turned out to be 28 µM in assay [7]; 73.6 µM in assay [8]; 67.2 µM in assay [9]; 16.5 µM in assay [10]; 54 µM in assay [11]; 19.8 µM in assay [12]. For the same molecule, the TGI in [13] came to 78.1 µM; in assay [14], 64 µM.

`O=Nc1c(NO)ccc2nn(-c3ccccc3)nc12`: the TGI is 23.1 µM in [1]; above 100 µM in assay [2]; above 100 µM in [3]; above 100 µM in assay [15]; 19.6 µM in [4]; 74.5 µM in [5]. The TGI in [16], in assay [6], in assay [7], in [8], in [10] and in assay [11] was above 100 µM in each case. For the same molecule, the TGI in assay [12] is above 100 µM; in [17], above 100 µM; in assay [13], 11.8 µM; in assay [14] it was 40 µM.

For the molecule `CC1(O)Oc2ccc3ccccc3c2C=C1C(N)=O` (stereo not given), the TGI in assay [1], in assay [2], in assay [3], in [15], in assay [4] and in assay [5] was above 100 µM in each case. Besides, the TGI in assay [16], in assay [7], in assay [8], in assay [9], in assay [10] and in assay [12] was above 100 µM each time. The TGI in assay [17] and in [13] was above 100 µM each time.

In the case of `COC(=O)c1ccc(NCC2=CC(=O)C=CC2=O)cc1`, the TGI is 30.4 µM in [1]; 30.3 µM in assay [2]; 22.7 µM in assay [3]; 61 µM in assay [15]; 30.8 µM in assay [4]; 9.58 µM in assay [5]. The TGI in assay [6] is 39.9 µM; in assay [7] it was 8.67 µM; in assay [8], 26.5 µM; in assay [11] it was 13.9 µM; in [12], above 100 µM; in [17] it was 25.9 µM. The molecule further returned a TGI in [13] of 19.5 µM.

Regarding `Cc1nnc2n1N=C(c1cc(F)c(Cl)cc1Cl)/C(=C/c1ccc3c(c1)OCO3)S2`, the TGI in assay [1], in assay [2], in [3], in assay [4], in assay [5] and in assay [16] was above 100 µM throughout. For the same molecule, the TGI in assay [6], in assay [7], in [8], in assay [9], in assay [10] and in assay [11] was above 100 µM throughout. Moreover, the TGI in [12], in [17], in assay [13] and in assay [14] was above 100 µM throughout.

For the molecule `CCn1c2ccccc2c2cc(NC(=O)c3c(NCCNCCO)nc(=O)[nH]c3C)ccc21`, the TGI in [1], in [2], in assay [3], in assay [4], in assay [5] and in [16] was above 100 µM each time. The TGI in assay [6], in assay [7], in assay [8], in assay [9], in [10] and in assay [11] was above 100 µM throughout. The TGI in [12], in assay [17], in assay [13] and in assay [14] was above 100 µM in each case.

In the case of `N#CC1(C#N)C(c2ccccc2)C=CC(c2ccc([N+](=O)[O-])cc2)C1(C#N)C#N` (stereo not given), the TGI in assay [1] was 13.7 µM; in [2], 34.5 µM; in [3] it was 13.1 µM; in assay [15], above 23.6 µM; in [4] it was 21.1 µM; in [5] it was 7.1 µM. In addition, the TGI in assay [16] was above 100 µM; in assay [6], 27.5 µM; in [7], 3.13 µM; in assay [8], 30.5 µM; in [10], above 100 µM; in assay [12] it was above 59.9 µM. The TGI in assay [17] was above 32.4 µM; in [13] it was 26.8 µM; in assay [14], 12.2 µM.

Consider `COc1ccc(-n2sc3ncc([N+](=O)[O-])cc3c2=O)cc1`, for which the TGI in assay [1], in [2], in [3], in [15], in assay [4] and in [5] was above 100 µM in each case. The TGI in assay [16], in assay [6], in [7], in assay [8], in assay [10] and in assay [11] was above 100 µM each time. In addition, the TGI in assay [12], in assay [17], in assay [13] and in assay [14] was above 100 µM throughout.

For the molecule `CCc1ccccc1NC(=O)C(=O)CC(=O)c1sc(Nc2ccccc2Cl)nc1C`, the TGI in [1] was 50.4 µM; in assay [2], 63.3 µM; in [3], above 100 µM; in assay [4], 45.9 µM; in assay [5], 49.8 µM; in assay [16], 46.1 µM. Further, the TGI was above 100 µM in assay [6]; 52.3 µM in [7]; above 100 µM in [8]; 74.2 µM in [9]; 58.9 µM in assay [10]; above 100 µM in assay [12]. Also, the TGI in assay [17] was 69.9 µM; in assay [13], above 100 µM; in [14], above 100 µM.
